Results on 35 molecules are retold here after patent US11332463B2, “Spiropiperidine allosteric modulators of nicotinic acetylcholine receptors” (Merck Sharp & Dohme Corp., priority 2018, dated 2022).

This experiment concerns the target T1, human α7 nicotinic acetylcholine receptor (HEK cell line stably expressing human RIC-3 and human α7) (Homo sapiens, UniProt P36544).
T1 construct: host or cells: HEK cell line (PrecisION hnAChR α7/RIC-3)
As to the kind of experiment: Automated patch-clamp electrophysiology functional assay (Assay A), IonFlux HT, whole-cell population patch. Type of experiment: cell-based.

Where [1] appears, read: HEK cells expressing human α7/RIC-3, test compound with or without 40 μM acetylcholine, holding potential −60 mV, room temperature, read-out: α7 nAChR Potency.
Setting [2] is: automated patch-clamp electrophysiology functional assay (Assay A), read-out: α7 nAChR EC50.

Read-outs that look alike come from different tables or passages of the source. A value given as a limit tells only on which side of the number the result lay.

T1 sequence (P36544 23-502): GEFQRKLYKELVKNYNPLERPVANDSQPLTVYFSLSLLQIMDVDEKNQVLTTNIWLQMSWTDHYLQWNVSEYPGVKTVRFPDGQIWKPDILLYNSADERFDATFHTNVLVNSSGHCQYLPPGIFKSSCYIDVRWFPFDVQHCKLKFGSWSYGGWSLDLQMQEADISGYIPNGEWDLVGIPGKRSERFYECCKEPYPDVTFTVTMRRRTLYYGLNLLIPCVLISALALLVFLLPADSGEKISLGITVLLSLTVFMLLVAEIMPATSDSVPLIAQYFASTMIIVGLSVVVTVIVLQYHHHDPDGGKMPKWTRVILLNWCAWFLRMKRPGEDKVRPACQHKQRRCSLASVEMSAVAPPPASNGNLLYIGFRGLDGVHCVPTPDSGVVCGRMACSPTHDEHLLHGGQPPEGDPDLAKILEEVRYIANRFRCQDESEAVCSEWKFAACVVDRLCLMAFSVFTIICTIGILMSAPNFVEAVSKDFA

In the case of `NS(=O)(=O)N1CCC2(CC2c2nc(-c3conc3C3CC3)no2)C(F)C1` (single isomer, unassigned) [Example I9], the EC50 under setting [1] lay within 500 to 5000 nM and the EC50 under setting [2] was 3300 nM.

For `Cc1ccccc1-c1nnc([C@@H]2CC23CCN(S(N)(=O)=O)CC3)s1` [Example F8], the EC50 under setting [1] is 500 to 5000 nM and the EC50 under setting [2] was found to be 750 nM.

Take `NS(=O)(=O)N1CCC2(CC1)C[C@H]2c1noc(-c2ccnc(OCC(F)(F)F)c2)n1` [Example E18]: the EC50 under setting [1] was in the range of 500 to 5000 nM and the EC50 under setting [2] turned out to be 1100 nM.

On to `NS(=O)(=O)N1CCC2(CC1)CC2c1nc(-c2c(C(F)(F)F)noc2C2CC2)no1` (stereo not drawn) [Example C12], for which the EC50 by setting is: under setting [1], 100 to 500 nM; under setting [2], 170 nM.

In the case of `CC1CN(S(N)(=O)=O)CCC12CC2c1nc(-c2ccnc(OCC(F)(F)F)c2)no1` (single isomer, unassigned) [Example I5], the EC50 by setting is: under setting [1], 500 to 5000 nM; under setting [2], 1200 nM.

On to `NS(=O)(=O)N1CCC2(CC1)CC2c1nc(-c2conc2C2CC2)no1` (stereo not drawn) [Example C4], for which the EC50 under setting [1] was 500 to 5000 nM and the EC50 under setting [2] stood at 1100 nM.

For the molecule `NS(=O)(=O)N1CCC2(CC1)C[C@H]2c1noc(-c2ocnc2C(F)(F)F)n1` [Example E23], the EC50 is 500 to 5000 nM under setting [1] and 4500 nM under setting [2].

As to `NS(=O)(=O)N1CCC2(C(F)C1)C(c1nc(-c3conc3C3CC3)no1)C2(F)F` (single isomer, unassigned) [Example I14], the EC50 under setting [1] lay within 100 to 500 nM and the EC50 under setting [2] worked out at 330 nM.

Consider `NS(=O)(=O)N1CCC2(CC1)C[C@H]2c1nnc(-c2ccc(F)cc2C(F)(F)F)s1` [Example F9], for which the EC50 was 500 to 5000 nM under setting [1] and 750 nM under setting [2].

Consider `CC(C)n1nccc1-c1nc([C@@H]2CC23CCN(S(N)(=O)=O)CC3)no1` [Example E62], for which the EC50 runs as follows: under setting [1], 500 to 5000 nM; under setting [2], 1500 nM.

Consider `NS(=O)(=O)N1CCC2(CC1)C(c1nc(-c3c(C(F)(F)F)noc3C3CC3)no1)C2(F)F` (stereo not drawn) [Example C16], for which the EC50 is < 100 nM under setting [1] and 37 nM under setting [2].

As for `Cc1ncccc1-c1noc(C2C(F)(F)C23CCN(S(N)(=O)=O)CC3)n1` (stereo not drawn) [Example C7], the EC50 is, setting by setting: under setting [1], 500 to 5000 nM; under setting [2], 1100 nM.

For `NS(=O)(=O)N1CCC2(CC1)[C@H](c1noc(-c3c(C4CC4)noc3C(F)(F)F)n1)C2(F)F` [Example E55], the EC50 is, setting by setting: under setting [1], < 100 nM; under setting [2], 30 nM.

Take `Cc1cn(C2CC2)nc1-c1nc([C@@H]2C(F)(F)C23CCN(S(N)(=O)=O)CC3)no1` [Example 25, (2R)-2-[5-(1-Cyclopropyl-4-methyl-1H-pyrazol-3-yl)-1,2,4-oxadiazol-3-yl]-1,1-difluoro-6-azaspiro[2.5]octane-6-sulfonamide]: the EC50 is 100 to 500 nM under setting [1] and 210 nM under setting [2].

Turning to `NS(=O)(=O)N1CCC2(CC1)C[C@H]2c1noc(-c2cccc3c2CCC3)n1` [Example E69], under setting [1], the EC50 was < 100 nM.

As for `Cn1nc(-c2nc([C@@H]3C(F)(F)C34CCN(S(N)(=O)=O)CC4)no2)c2c1CCC2` [Example E44], under setting [1], the EC50 is 100 to 500 nM.

`COc1ccc(Cl)cc1-c1noc(C2CC23CCN(S(=O)(=O)NCc2ccccn2)CC3)n1` (racemic) [Example B11]: the EC50 runs as follows: under setting [1], 500 to 5000 nM; under setting [2], 3500 nM.

For the molecule `Cn1nc2c(c1-c1nc([C@@H]3CC34CCN(S(N)(=O)=O)CC4)no1)CCCC2` [Example E65], the EC50 is, setting by setting: under setting [1], 100 to 500 nM; under setting [2], 420 nM.

On to `Cc1nn(C)c(-c2nc([C@@H]3C(F)(F)C34CCN(S(N)(=O)=O)CC4)no2)c1C` [Example 22, (2R)-1,1-Difluoro-2-[5-(1,3,4-trimethyl-1H-pyrazol-5-yl)-1,2,4-oxadiazol-3-yl]-6-azaspiro[2.5]octane-6-sulfonamide], for which the EC50 is, setting by setting: under setting [1], < 100 nM; under setting [2], 99 nM.

`NS(=O)(=O)N1CCC2(CC1)C[C@H]2c1noc(C2CCCCC23CC3)n1` (mixture of isomers) [Example E11]: the EC50 by setting is: under setting [1], 500 to 5000 nM; under setting [2], 4300 nM.

Regarding `COc1ccc(Cl)cc1-c1noc(C2CC23CCN(S(=O)(=O)c2c(O)no[n+]2C)CC3)n1` (racemic) [Example B8], the EC50 under setting [1] was in the range of 500 to 5000 nM.

With `CCc1ncoc1-c1nc([C@@H]2CC23CCN(S(N)(=O)=O)CC3)no1` [Example E24], the EC50 was 500 to 5000 nM under setting [1] and 3600 nM under setting [2].

Consider `CCn1cc(-c2nc([C@@H]3C(F)(F)C34CCN(S(N)(=O)=O)CC4)no2)c(C2CC2)n1` [Example E37], for which the EC50 was < 100 nM under setting [1] and 78 nM under setting [2].

In the case of `NS(=O)(=O)N1CCC2(CC1)C[C@H]2c1cnn(-c2cccc(OC(F)(F)F)c2)c1` [Example 15, (1R)-1-{1-[3-(Trifluoromethoxy)phenyl]-1H-pyrazol-4-yl}-6-azaspiro[2.5]octane-6-sulfonamide], the EC50 reads like this: under setting [1], 100 to 500 nM; under setting [2], 330 nM.

In the case of `NS(=O)(=O)N1CCC2(CC1)C[C@H]2c1noc(-c2ccc(F)cc2C(F)(F)F)n1` [Example D16], the EC50 by setting is: under setting [1], 100 to 500 nM; under setting [2], 160 nM.

Take `Cc1ccc(C2CC2)c(-c2nc([C@@H]3C(F)(F)C34CCN(S(N)(=O)=O)CC4)no2)c1` [Example 30, (2R)-2-[5-(2-Cyclopropyl-5-methylphenyl)-1,2,4-oxadiazol-3-yl]-1,1-difluoro-6-azaspiro[2.5]octane-6-sulfonamide]: the EC50 by setting is: under setting [1], < 100 nM; under setting [2], 2.4 nM.

For `NS(=O)(=O)N1CCC2(CC1)C[C@H]2c1noc(C2(c3cc(F)ccc3F)CCC2)n1` [Example E10], the EC50 by setting is: under setting [1], 500 to 5000 nM; under setting [2], 3400 nM.

As for `NS(=O)(=O)N1CCC2(CC1)C[C@H]2c1noc(-c2cccc(OC(F)F)c2)n1` [Example D11], the EC50 is 500 to 5000 nM under setting [1] and 510 nM under setting [2].

As for `NS(=O)(=O)N1CCC2(CC1)C(c1nc(-c3ccccc3)no1)C2(F)F` (stereo not drawn) [Example A2], the EC50 reads like this: under setting [1], 100 to 500 nM; under setting [2], 320 nM.

`NS(=O)(=O)N1CCC2(CC1)C(c1nc(C3CCCCC3)no1)C2(F)F` (stereo not drawn) [Example C6]: the EC50 was 100 to 500 nM under setting [1] and 420 nM under setting [2].

`NS(=O)(=O)N1CCC2(CC1)C[C@H]2c1noc(-c2ccccc2Oc2ccccc2)n1` [Example E71]: the EC50 runs as follows: under setting [1], 100 to 500 nM; under setting [2], 360 nM.

Turning to `COc1ccc(Cl)cc1-c1noc(C2CC23CCN(S(=O)(=O)c2ccsc2)CC3)n1` (racemic) [Example B2], the EC50 under setting [1] was 500 to 5000 nM.

As to `Cn1ncc(C(F)(F)F)c1-c1nc([C@@H]2CC23CCN(S(N)(=O)=O)CC3)no1` [Example E32], the EC50 runs as follows: under setting [1], 100 to 500 nM; under setting [2], 330 nM.

Consider `NS(=O)(=O)N1CCC2(CC2c2nc(-c3conc3C3CC3)no2)C(F)C1` (single isomer, unassigned) [Example I7], for which the EC50 was 500 to 5000 nM under setting [1] and 1500 nM under setting [2].

With `NS(=O)(=O)N1CCC2(CC1)[C@H](c1noc(-c3conc3C(F)(F)F)n1)C2(F)F` [Example E68], the EC50 by setting is: under setting [1], 500 to 5000 nM; under setting [2], 680 nM.
